This note sets out measurements from patent US8394786B2, “Quinazoline derivatives” (Janssen Pharmaceutica N.V., priority 2003, dated 2013).

Usually melting point stands for the temperature, or range, at which the solid turns liquid.

The test system of data set [1] is SKOV3 cells. Briefly: Serum starved proliferation assay on the ovarian carcinoma SKOV3 cells (C3). The data set is classed as cell-based. The settings on record: Homo sapiens, SK-OV-3, 72 h, EGF stimulated (100 ng/ml, 72 hours, serum free) or 72 hours with compounds; MTT cell viability assay; read-out: SKOV3 cell (C3): pIC50 (converted). The method in brief:
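MTT viability read-out in SKOV3 cells after a 24 h pre-incubation in 10% FCS, in one of two formats. EGF-stimulated version: serum-free compound exposure followed by 100 ng/ml EGF (final) for 72 h at 37 °C, 5% CO2. Otherwise, compound alone for 72 h.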

Data set [2] has as its system A431 cells. Briefly: Proliferation assay on the squamous carcinoma cell line A431 cells (C5). The class given is cell-based. The settings on record: Homo sapiens, A-431; 72 hours with compounds; MTT cell viability assay; read-out: A431 cell (C5): pIC50 (converted). How it is done: The squamous carcinoma cell line (A431) was used in a cell proliferation assay, to assess the inhibitory effect of the compounds in whole cells.
In a first step the A431 cells were incubated for 24 hours in the presence of 10% FCS serum. In the second step the cells were incubated for 72 hours with the compounds to be tested at a final concentration of 100 ng/ml. The effect of the compounds on the cell proliferation was finally assessed in a standard MTT cell viability assay.
Background: Tetrazolium assays rely on reduction of a dye to a coloured formazan, in cell work by metabolically active cells.

The target in data set [3] is EGFR (Homo sapiens, UniProt P00533). Nature of the data set: In vitro inhibition of EGFR, Flash Plate or glass-fiber filter technology (C2). Particulars: EGFR-kinase domain, 5.0 μM unlabeled ATP, read-out: Kinase activity.(C2): pIC50 (converted). Details: 0.5 μg EGFR-kinase domain/well. The class given is biochemical. Summed up: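 Two radiometric formats were used, each with 5.0 μM unlabeled ATP, [33P]ATP, 0.5 μg EGFR kinase domain and compounds from 1·10^−10 to 1·10^−6 M. Glass-fiber filter: 25° C for 10 min, pH 7.5, Mn2+/Mg2+, acid-stopped, phosphorimager read. Streptavidin Flash Plate: biotinylated poly(GT), pH 8.0, 30° C for 60 min.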
Sequence of EGFR (P00533 712-979 limits assumed): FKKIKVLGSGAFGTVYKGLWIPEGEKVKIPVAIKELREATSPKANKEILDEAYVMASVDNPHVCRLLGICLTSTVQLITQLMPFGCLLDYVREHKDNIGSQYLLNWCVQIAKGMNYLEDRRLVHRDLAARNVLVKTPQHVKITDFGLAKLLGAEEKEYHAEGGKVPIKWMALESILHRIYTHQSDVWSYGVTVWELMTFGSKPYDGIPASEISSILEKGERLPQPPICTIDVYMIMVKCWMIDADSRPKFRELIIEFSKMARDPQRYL

For `COc1cc2ncnc3c2cc1OCCCCCN(C(=O)OC(C)(C)C)Cc1ccc(Br)cc1N3` [Compound 19, 4,6-ethanediylidenepyrimido[4,5-b][6,1,12]benzoxadiazacyclo-pentadecine-13(8H)-carboxylic acid, 17-bromo-9,10,11,12,14,19-hexahydro-20-methoxy-, 1,1-dimethylethyl ester], the IC50 in data set [1] was 5.01 µM; in data set [2], more than 3.16 µM; in data set [3] it was 0.0631 µM.

For the molecule `COc1cc2ncnc3c2cc1OCCCCCNCc1ccc(Br)cc1N3` [Compound 20, 4,6-ethanediylidenepyrimido[4,5-b][6,1,12]benzoxadiazacyclo-pentadecine, 17-bromo-8,9,10,11,12,13,14,19-octahydro-20-methoxy-], the results for the IC50 in data set [1], in data set [2] and in data set [3] were 0.229 µM, 1.26 µM and 0.0251 µM, respectively.

In the case of `COc1cc2ncnc3c2cc1OCCCCOCCc1ccc(Cl)cc1N3` [Compound 23, 4,6-ethanediylidene-13H-pyrimido[4,5-b][6,11,1]benzodioxaazacyclo-pentadecine, 17-chloro-8,9,10,11,14,19-hexahydro-20-methoxy-], the IC50 in data set [1] is 0.0603 µM; in data set [2] it was 0.501 µM; in data set [3], 0.01 µM.

In turn, `COc1cc2ncnc3c2cc1OCCCCCCCCON=Cc1ccc(Cl)cc1N3` [Compound 24, 4,6-ethanediylidene-23H-pyrimido[4,5-b][6,15,1,16]benzo-dioxadiazacyclononadecine, 21-chloro-8,9,10,11,12,13,14,15-octahydro-24-methoxy-] showed a melting point of 127.2 to 132.2 °C. The IC50 in data set [1] is 3.16 µM. For the same molecule, the IC50 in data set [2] is more than 3.16 µM. The IC50 in data set [3] was 0.02 µM.

Consider `COc1cc2ncnc3c2cc1OCCCCCCCCOc1cccc(c1)N3` [Compound 25, 22H-4,6-ethanediylidene-21,17-methenopyrimido[5,4-d][1,12,6]dioxaazacycloeicosine, 8,9,10,11,12,13,14,15-octahydro-24-methoxy-], for which the IC50 in data set [1] was more than 10 µM; in data set [2] it was more than 3.16 µM; in data set [3] it was 0.631 µM.

Take `COc1cc2ncnc3c2cc1OCCCNC(=O)CCc1ccc(Cl)cc1N3` [Compound 26, 4,6-ethenopyrimido[4,5-b][6,1,10]benzoxadiazacyclopentadecin-12(13H)-one, 17-chloro-8,9,10,11,14,19-hexahydro-20-methoxy-]: the IC50 was 0.12 µM in data set [1], 2 µM in data set [2] and 0.00251 µM in data set [3].

`COCCOc1cc2ncnc3c2cc1OCCCCCCOc1ccc(Br)cc1N3` [Compound 28, 4,6-ethanediylidene-19H-pyrimido[4,5-b][6,13,1]benzodioxaazacyclopentadecine, 17-bromo-8,9,10,11,12,13-hexahydro-20-(2-methoxyethoxy)-]: the IC50 in data set [1] is 1.45 µM; in data set [2] it was 1.58 µM; in data set [3] it was 0.0251 µM.

Consider `COc1cc2ncnc3c2cc1OCCCCCN(C(=O)OC(C)(C)C)Cc1cc(F)c(Cl)cc1N3` [Compound 29, 4,6-ethanediylidenepyrimido[4,5-b][6,1,12]benzoxadiazacyclopentadecine-13(8H)-carboxylic acid, 17-chloro-16-fluoro-9,10,11,12,14,19-hexahydro-20-methoxy-, 1,1-dimethylethyl ester], for which the IC50 is more than 10 µM in data set [1], more than 3.16 µM in data set [2] and 0.794 µM in data set [3].

`COc1cc2ncnc3c2cc1OCCCCCNCc1cc(F)c(Cl)cc1N3` [Compound 30, 4,6-ethanediylidenepyrimido[4,5-b][6,1,12]benzoxadiazacyclopentadecine, 17-chloro-16-fluoro-8,9,10,11,12,13,14,19-octahydro-20-methoxy-]: the IC50 in data set [1] is 1.02 µM; in data set [2], more than 1 µM; in data set [3] it was 0.0316 µM.

Regarding `COc1cc2ncnc3c2cc1OCCN(CCN1CCOCC1)CCCOc1ccc(Cl)cc1N3` [Compound 33, 4,6-etheno-19H-pyrimido[5,4-k][1,8,5,13]benzodioxadiazacyclopentadecine, 17-chloro-8,9,10,11,12,13-hexahydro-20-methoxy-10-[2-(4-morpholinyl)ethyl]-], the figures for the IC50 in data set [1], in data set [2] and in data set [3] were 1.74 µM, 1.58 µM and 0.0251 µM, respectively.

In the case of `COc1cc2ncnc3c2cc1OCCCCCCOc1ccc(-c2ccccc2)cc1N3` [Compound 34, 4,6-ethanediylidene-19H-pyrimido[4,5-b][6,13,1]benzodioxaazacyclopentadecine, 8,9,10,11,12,13-hexahydro-20-methoxy-17-phenyl-], the IC50 in data set [1] was more than 10 µM; in data set [2], more than 3.16 µM; in data set [3] it was 0.0631 µM.

With `COc1cc2ncnc3c2cc1OCCCCCCOc1ccc(-c2cccc(C#N)c2)cc1N3` [Compound 35, benzonitrile, 3-(8,9,10,11,12,13-hexahydro-20-methoxy-4,6-ethanediylidene-19H-pyrimido[4,5-b][6,13,1]benzodioxaazacyclopentadecin-17-yl)-], the IC50 in data set [1] was more than 10 µM; in data set [2] it was more than 3.16 µM; in data set [3], 3.98 µM.

In the case of `COc1cc2ncnc3c2cc1OCCCCCCNC(=O)c1ccc(Cl)cc1N3` [Compound 36, 4,6-ethanediylidene-8H-pyrimido[4,5-b][6,1,13]benzoxadiazacyclohexadecin-15(20H)-one, 18-chloro-9,10,11,12,13,14-hexahydro-21-methoxy-], the figures for the IC50 in data set [1], in data set [2] and in data set [3] were 0.166 µM, more than 3.16 µM and 0.0158 µM, respectively.

As to `COc1cc2ncnc3c2cc1OCCCCCCOc1cc(Cl)ccc1N3` [Compound 37, 4,6-ethanediylidene-19H-pyrimido[4,5-b][6,13,1]benzodioxaazacyclopentadecine, 16-chloro-8,9,10,11,12,13-hexahydro-20-methoxy-], the IC50 in data set [1] is more than 10 µM; in data set [2], more than 3.16 µM; in data set [3] it was more than 10 µM.

For `COc1cc2ncnc3c2cc1OCCCCCOCCc1ccc(Cl)cc1N3` [Compound 38, 4,6-ethanediylidene-8H,14H-pyrimido[4,5-b][6,12,1]benzodioxaazacyclohexadecine, 18-chloro-9,10,11,12,15,20-hexahydro-21-methoxy-], the values for the IC50 in data set [1], in data set [2] and in data set [3] were 0.126 µM, 1.26 µM and 0.02 µM, respectively.

In the case of `COc1cc2ncnc3c2cc1OCCOCCOCCc1ccc(Cl)cc1N3` [Compound 39, 4,6-ethanediylidene-14H-pyrimido[4,5-b][6,9,12,1]benzotrioxaazacyclohexadecine, 18-chloro-8,9,11,12,15,20-hexahydro-21-methoxy-], the IC50 was 0.2 µM in data set [1], 1.58 µM in data set [2] and 0.02 µM in data set [3].

On to `COc1cc2ncnc3c2cc1OCCCC(=O)NCCCc1ccc(Cl)cc1N3` [Compound 40, 4,6-ethanediylidene-8H-pyrimido[4,5-b][6,1,11]benzoxadiazacyclohexadecin-11(12H)-one, 18-chloro-9,10,13,14,15,20-hexahydro-21-methoxy-], for which the IC50 is 0.0501 µM in data set [1], 0.631 µM in data set [2] and 0.0316 µM in data set [3].
